Drawing on PubChem BioAssay AID314 (DTP/NCI, 2004), this text covers T/C for 16 compounds.

This assay relates to DBA/2 mice, P1534 leukemia ip, survival T/C. Briefly: NCI In Vivo Anticancer Drug Screen. Data for tumor model P1534 Leukemia (intraperitoneal) in DBA/2 mice. To be noted: endpoint: mean survival time, higher = longer survival. On the procedure:
The antitumor activity of compounds was measured in mice bearing transplantable tumors. Survival or tumor size were measured and the results are expressed as the measurement made in the treated group (T) divided by the measurement made in the vehicle treated control group (C). The tumor model used in this assay is P1534 Leukemia (intraperitoneal) in DBA/2 mice

The mark [1] stands for this setting: dose: 3.13 mg/kg/injection, schedule: Q01DX010 (ip), vehicle: saline.
Setting [2] is: dose: 6.25 mg/kg/injection, schedule: Q01DX010 (ip), vehicle: saline.
Where [3] appears, read: dose: 12.5 mg/kg/injection, schedule: Q01DX010 (ip), vehicle: saline.
[4] abbreviates: dose: 25.0 mg/kg/injection, schedule: Q01DX010 (ip), vehicle: saline.
Where [5] appears, read: dose: 32.0 mg/kg/injection, schedule: Q01DX010 (ip), vehicle: saline.
Setting [6] is: dose: 64.0 mg/kg/injection, schedule: Q01DX010 (ip), vehicle: saline.
Where [7] appears, read: dose: 50.0 mg/kg/injection, schedule: Q01DX010 (ip), vehicle: saline.
Setting [8] is: dose: 125.0 mg/kg/injection, schedule: Q01DX010 (ip), vehicle: saline.
Setting [9] is: dose: 10.0 mg/kg/injection, schedule: Q01DX010 (ip), vehicle: saline.
Where [10] appears, read: dose: 20.0 mg/kg/injection, schedule: Q01DX010 (ip), vehicle: saline.
Where [11] appears, read: dose: 40.0 mg/kg/injection, schedule: Q01DX010 (ip), vehicle: saline.

Where “and” joins values, the source holds several entries; their conditions need not be identical. Equal values may be shown once. Toxic doses and inconclusive results are not listed.

For `O=NN(CCCl)C(=O)NCCCl`, the T/C (dose: 1.57 mg/kg/injection, schedule: Q01DX010 (ip), vehicle: saline) is 100 % of control and 103 % of control; the T/C under setting [1] was 103 % of control and 111 % of control; the T/C under setting [2] was 100 % of control.
Regarding `C/C=C1\CN(C=O)C2CC3c4ccccc4NC3C(=O)CC1C2C(=O)OC` (stereo not given), the T/C reads like this: under setting [1], 100 % of control; under setting [2], 100 % of control; under setting [3], 100 % of control; under setting [4], 100 % of control.
For `O=C(Nc1ccc(C2=NCCN2)cc1)c1cccc(C(=O)Nc2ccc(C3=NCCN3)cc2)c1`, the T/C runs as follows: (dose: 8.0 mg/kg/injection, schedule: Q01DX010 (ip), vehicle: saline) 163 % of control; (dose: 16.0 mg/kg/injection, schedule: Q01DX010 (ip), vehicle: saline) 177 % of control; under setting [5], 240 % of control; under setting [6], 290 % of control.
As to `N[C@@H](Cc1ccc(N(CCCl)CCCl)cc1)C(=O)O`, the T/C by setting is: (dose: 0.5 mg/kg/injection, schedule: Q01DX010 (ip), vehicle: saline) 119 % of control and 123 % of control; (dose: 1.0 mg/kg/injection, schedule: Q01DX010 (ip), vehicle: other) 88 % of control; (dose: 1.0 mg/kg/injection, schedule: Q01DX010 (ip), vehicle: saline) 119 % of control and 123 % of control; (dose: 2.0 mg/kg/injection, schedule: Q01DX010 (ip), vehicle: saline) 161 % of control.
On to `CCCCn1cnc2c(=S)nc[nH]c21`, for which the T/C was 96 % of control under setting [5]; 92 % of control and 96 % of control under setting [6]; 96 % of control and 100 % of control (dose: 128.0 mg/kg/injection, schedule: Q01DX010 (ip), vehicle: saline).
`CS(=O)(=O)OCCC(=O)N1CCN(C(=O)CCOS(C)(=O)=O)CC1`: the T/C runs as follows: under setting [1], 107 % of control; under setting [2], 103 % of control; under setting [3], 119 % of control; under setting [4], 120 % of control.
`COS(C)(=O)=O`: the T/C is 88 % of control and 100 % of control under setting [3]; 88 % of control under setting [4]; 92 % of control under setting [7].
With `O=c1[nH]c(=O)n(C2CC(O)C(CO)O2)cc1I` (stereo not given), the T/C under setting [8] is 103 % of control and 107 % of control; the T/C (dose: 250.0 mg/kg/injection, schedule: Q01DX010 (ip), vehicle: saline) was 103 % of control and 110 % of control; the T/C (dose: 500.0 mg/kg/injection, schedule: Q01DX010 (ip), vehicle: saline) was 107 % of control and 114 % of control and 121 % of control; the T/C (dose: 1000.0 mg/kg/injection, schedule: Q01DX010 (ip), vehicle: saline) is 110 % of control.
In the case of `O[C@H](CN1CC1)[C@@H](O)CN1CC1`, the T/C is 88 % of control (dose: 0.13 mg/kg/injection, schedule: Q01DX010 (ip), vehicle: saline) and 96 % of control (dose: 0.25 mg/kg/injection, schedule: Q01DX010 (ip), vehicle: saline).
As for `Cn1c(N)nc2nc[nH]c2c1=S`, the T/C runs as follows: (dose: 5.0 mg/kg/injection, schedule: Q01DX010 (ip), vehicle: saline) 100 % of control; under setting [9], 100 % of control; under setting [10], 100 % of control; under setting [11], 100 % of control.
Turning to `CC[C@]1(O)C[C@H]2CN(CCc3c([nH]c4ccccc34)[C@@](C(=O)OC)(c3cc4c(cc3OC)N(C=O)[C@H]3[C@@](O)(C(=O)OC)[C@H](OC(C)=O)[C@]5(CC)C=CCN6CC[C@]43[C@@H]65)C2)C1`, the T/C is 117 % of control (dose: 15.6 micrograms/kg/injection, schedule: Q01DX010 (ip), vehicle: saline) and 114 % of control (dose: 31.3 micrograms/kg/injection, schedule: Q01DX010 (ip), vehicle: saline).
Regarding `COc1cc2c3c(c4ccc(OC)c(OC)c4c2cc1OC)CN1CCC[C@@H]1C3`, the T/C (dose: 2.5 mg/kg/injection, schedule: Q01DX010 (ip), vehicle: saline) was 88 % of control; the T/C under setting [9] is 92 % of control and 107 % of control; the T/C (dose: 15.0 mg/kg/injection, schedule: Q01DX010 (ip), vehicle: saline) was 96 % of control and 121 % of control.
Consider `Cn1c(O)c(N=NC(N)=S)c2ccccc21`, for which the T/C is, setting by setting: (dose: 31.3 mg/kg/injection, schedule: Q01DX010 (ip), vehicle: saline) 100 % of control; (dose: 62.5 mg/kg/injection, schedule: Q01DX010 (ip), vehicle: saline) 100 % of control; under setting [8], 103 % of control.
`CCN(CC)CCNc1ccc(C)c2sc3ccccc3c(=O)c12`: the T/C by setting is: under setting [9], 108 % of control; under setting [10], 108 % of control; under setting [11], 112 % of control; (dose: 80.0 mg/kg/injection, schedule: Q01DX010 (ip), vehicle: saline) 100 % of control.
On to `CC(=O)[C@H]1CC[C@H]2[C@@H]3C[C@H](C)C4=CC(=O)CC[C@]4(C)[C@H]3C(=O)C[C@]12C`, for which the T/C was 100 % of control (dose: 6.25 mg/kg/injection, schedule: Q01DX010 (sc), vehicle: steriod suspending solution); 107 % of control (dose: 12.5 mg/kg/injection, schedule: Q01DX010 (sc), vehicle: steriod suspending solution); 103 % of control (dose: 25.0 mg/kg/injection, schedule: Q01DX010 (sc), vehicle: steriod suspending solution); 107 % of control (dose: 50.0 mg/kg/injection, schedule: Q01DX010 (sc), vehicle: steriod suspending solution).
Consider `[N-]=[N+]=CC(=O)NCC(=O)NN`, for which the T/C is 108 % of control under setting [7]; 100 % of control (dose: 100.0 mg/kg/injection, schedule: Q01DX010 (ip), vehicle: saline); 95 % of control (dose: 200.0 mg/kg/injection, schedule: Q01DX010 (ip), vehicle: saline); 91 % of control (dose: 400.0 mg/kg/injection, schedule: Q01DX010 (ip), vehicle: saline).
